The target of test [1] is T1, Sirt3 (hSirt3 118-399) (Homo sapiens, UniProt Q9NTG7).
T1 sequence (Q9NTG7 118-399): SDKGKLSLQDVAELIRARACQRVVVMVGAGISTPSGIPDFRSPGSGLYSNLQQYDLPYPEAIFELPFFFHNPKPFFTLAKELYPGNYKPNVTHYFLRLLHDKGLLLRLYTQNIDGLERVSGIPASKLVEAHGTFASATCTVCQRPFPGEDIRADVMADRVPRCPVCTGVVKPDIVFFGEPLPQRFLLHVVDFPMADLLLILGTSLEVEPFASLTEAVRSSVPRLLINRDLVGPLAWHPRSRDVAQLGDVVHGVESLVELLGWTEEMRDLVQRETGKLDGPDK
The test is described as follows: switchSENSE kinetics. In kind it is binding. Conditions: absence of cofactors; HDAC buffer, 5% DMSO, 25 °C.

In test [2] the target is T1, Sirt3 (hSirt3 118-399). The test is described as follows: fluorescence deacetylation assay. It counts as biochemical. To be noted: read-out: % control at 10 μM.

The term Kd denotes the free concentration of one partner at which half of the binding sites on the other are occupied at equilibrium, for simple one-to-one binding. High values mean weaker binding, low ones tighter binding. With `CCCCNC(=O)COc1ccc2c(c1)CCc1ccccc1C2NC(=O)CCCOc1cc([N+](=O)[O-])c(C(C)O)cc1OC` (centres unmarked) [AA8AC40], the Kd at Sirt3 (hSirt3 118-399) [1] worked out at 4.56 ± 3.5 µM. Regarding `CCCCNC(=O)COc1ccc2c(c1)CCc1ccccc1C2NC(=O)CSC(=S)c1ccccc1` (centres unmarked) [AA8AC71], at Sirt3 (hSirt3 118-399) [2], the remaining activity at 10 µM turned out to be 72.4%. `C=C(CC)C(=O)c1ccc(OCC(=O)NC2c3ccccc3CCc3cc(OCC(=O)NCCCC)ccc32)c(Cl)c1Cl` (centres unmarked) [AA8AC92]: at Sirt3 (hSirt3 118-399) [2], the remaining activity at 10 µM is 75.7%.

On to `C=C(CC)C(=O)c1ccc(OCC(=O)N[C@H](Cc2ccc(Cl)cc2)C(=O)NCCCC)c(Cl)c1Cl` [AA12AC92], for which, at Sirt3 (hSirt3 118-399) [2], the remaining activity at 10 µM turned out to be 83.1%. The same measure, in the same setting: under `CCCCNC(=O)[C@@H](Cc1ccc(Cl)cc1)NC(=O)CSC(=S)c1ccccc1` [AA12AC71] stands 76.5%.

Values taken from article doi:10.1101/2022.01.05.475007v1 (biorxiv, 2022).
